Reference: US8664391B2, “Amide compounds as boosters of antivirals” (Janssen R&D Ireland Ltd, priority 2008, dated 2014)
Where two headings read alike, the source gives them in different places.

Key:
in vitro = in vitro ADME, human; conditions: pH 7.4
Excerpt: Assay 3: Metabolic Stability of Test Compounds (HLM15′)
Sub-cellular tissue preparations are made according to Gorrod et al. (Xenobiotica, 5, pp. 453-462 (1975)) by centrifugal separation after mechanical homogenization of tissue. Human liver tissue is rinsed in ice-cold 0.1 M Tris-HCl (pH 7.4) buffer to wash excess blood. Tissue is then blotted dry, weighed and chopped coarsely using surgical scissors. The tissue pieces are homogenized in 3 volumes of ice-cold 0.1 M phosphate buffer (pH 7.4) using either a Potter-S (Braun, Italy) equipped with a Teflon pestle or a Sorvall Omni-Mix homogenizer, for 7×10 sec. In both cases, the vessel is kept in/on ice during the homogenization process. Tissue homogenates are centrifuged at 9000×g for 20 min at 4° C. using a Sorvall centrifuge or Beckman Ultracentrifuge. The resulting supernatant can be stored at −80° C. and is designated ‘S9’. The S9 fraction is centrifuged at 100,000×g for 60 min at 4° C. using a Beckman ultracentrifuge. The resulting supernatant is carefully aspirated, aliquoted and designated ‘cytosol’. The pellet is re-suspended in 0.1 M phosphate buffer (pH 7.4) in a final volume of 1 ml per 0.5 g original tissue weight and designated ‘microsomes’. All sub-cellular fractions are aliquoted, immediately frozen in liquid nitrogen and stored at −80° C. until use.
Heat-inactivated (10 min at 95° C.) ‘S9’ or microsomes were used for blank experiments. Reaction mixtures were incubated at 37° C. for 5 min, after which the reaction was started by the addition of 0.8 mM β-NADP. The reaction was incubated for 0 or 15 min. Next, the reaction was stopped by addition of 2 volumes of DMSO (or acetonitrile). Samples were centrifuged (10 min, 900×g) and analyzed by LC-MS.

CYP2C9 = CYP2C9 (Homo sapiens, UniProt P11712); experiment: CYP450 inhibition, fluorescent substrate assay, CYP2C9; assay type: biochemical
Method: (§1) Assay 4: CYP450 Inhibition […] This fluorescent molecule was measured using a fluorescent plate reader (Victor2 (Wallac) or Fluoroskan (Labsystems)). Compounds inhibiting the enzymatic reaction will result in a decrease of fluorescent signal. CYP P450 enzymes were prepared in house or commercially bought and stored at −80° C. [table] The assay was performed in black 96 well Costar plates. Test compounds were added to a CYP P450 enzyme solution in the presence of an NADPH generating system. After 5 min of preincubation at 37° C., the freshly prepared, phosphate buffered (pH 7.4) substrate solution was added. Known CYP P450 inhibitors were used as positive controls, negative controls were run without CYP P450 enzyme. For final reaction mixture concentrations, see Table 6. […] Then, the reaction was stopped by the addition of 200 μl acetonitrile, and the fluorescent signal was detected. [table] […] Inhibition of TMC114 Metabolisation

CYP1A2 = target: T1, CYP1A2 (Homo sapiens, UniProt P05177); experiment: CYP450 inhibition, fluorescent substrate assay, CYP1A2; assay type: biochemical; conditions: substrate CEC 5 μM, read-out: 1A2-CEC % inh.
T1 construct: host or cells: E. coli
T1 sequence (P05177 1-516): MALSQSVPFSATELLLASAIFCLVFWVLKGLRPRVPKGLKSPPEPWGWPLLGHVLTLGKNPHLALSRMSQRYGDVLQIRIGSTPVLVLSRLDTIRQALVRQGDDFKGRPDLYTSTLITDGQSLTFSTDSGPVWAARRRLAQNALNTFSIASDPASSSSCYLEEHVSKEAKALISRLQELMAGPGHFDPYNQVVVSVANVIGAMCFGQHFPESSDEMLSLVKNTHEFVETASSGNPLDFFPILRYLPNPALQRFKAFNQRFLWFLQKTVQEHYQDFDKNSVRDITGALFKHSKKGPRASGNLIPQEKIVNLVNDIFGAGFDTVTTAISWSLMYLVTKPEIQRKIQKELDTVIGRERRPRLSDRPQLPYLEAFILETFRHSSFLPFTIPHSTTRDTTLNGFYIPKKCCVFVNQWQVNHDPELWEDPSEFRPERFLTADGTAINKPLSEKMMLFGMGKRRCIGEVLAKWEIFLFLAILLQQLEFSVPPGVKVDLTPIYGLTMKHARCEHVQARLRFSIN
Method: as §1

CYP2C19 = target: T2, CYP2C19 (Homo sapiens, UniProt P33261); experiment: CYP450 inhibition, fluorescent substrate assay, CYP2C19; assay type: biochemical; conditions: substrate CEC 25 μM, read-out: 2C19-CEC % inh.
T2 construct: host or cells: E. coli
Method: as §1

CYP2D6 = target: T3, CYP2D6 (Homo sapiens, UniProt P10635); experiment: CYP450 inhibition, fluorescent substrate assay, CYP2D6; assay type: biochemical; conditions: substrate AMMC 3 μM, read-out: 2D6-AMMC % inh.
T3 construct: host or cells: E. coli
Method: as §1

CYP3A4 = target: T4, CYP3A4 (Homo sapiens, UniProt P08684); experiment: CYP450 inhibition, fluorescent substrate assay, CYP3A4; assay type: biochemical; conditions: for inhibition at 10 min, 10 μM: substrate DBF 1 μM, read-out: 3A4-DBF % inh.
T4 construct: host or cells: E. coli
Method: as §1

[1] = Cytotoxicity in mock-infected MT4 CMV-EGFP cells; assay type: cell-based; conditions: human, pCC50 = -log10(CC50), read-out: Toxicity MT4 pCC50 (converted)
Excerpt: (§2) Assay 1 &2: Antiviral Activity/Toxicity
Analogously, MT4 cells are engineered with GFP and the constitutional cytomegalovirus (CMV) promotor. This cell line is designated MT4 CMV-EGFP, and can be used for the in vitro evaluation of cytotoxicity of investigational compounds. In this cell line, GFP levels are comparably to those of infected MT4 LTR-EGFP cells. Cytotoxic investigational compounds reduce GFP levels of mock-infected MT4 CMV-EGFP cells.
Effective concentration values such as 50% effective concentration (EC50) can be determined and are usually expressed in μM. An EC50 value is defined as the concentration of test compound that reduces the fluorescence of HIV-infected cells by 50%. The 50% cytotoxic concentration (CC50 in μM) is defined as the concentration of test compound that reduces fluorescence of the mock-infected cells by 50%. The ratio of CC50 to EC50 is defined as the selectivity index (SI) and is an indication of the selectivity of the anti-HIV activity of the inhibitor. The ultimate monitoring of HIV-1 infection and cytotoxicity is done using a scanning microscope. Image analysis allows very sensitive detection of viral infection. Measurements are done before cell necrosis, which usually takes place about five days after infection, in particular measurements are performed three days after infection.
Table 2 lists pEC50 values against the wild-type HIV-1 IIIB strain as well as pCC50 values for a selected number of compounds of the invention. A pEC50 value corresponds to −log10(EC50). A pCC50 value corresponds to −log10(CC50).

[2] = tested on: wild-type HIV-1 IIIB strain; experiment: Antiviral activity in MT4 LTR-EGFP cellular assay; assay type: cell-based; conditions: read-out: Antiviral Activity IIIB pEC50 (converted)
Method: as §2
The compounds of the present invention were tested for antiviral activity in a cellular assay, which was performed according to the following procedure.
The human T-cell line MT4 is engineered with Green Fluorescent Protein (GFP) and an HIV-specific promoter, HIV-1 long terminal repeat (LTR). This cell line is designated MT4 LTR-EGFP, and can be used for the in vitro evaluation of anti-HIV activity of investigational compounds. In HIV-1 infected cells, the Tat protein is produced which upregulates the LTR promotor and finally leads to stimulation of the GFP reporter production, allowing measuring ongoing HIV-infection fluorometrically.
The ratio of CC50 to EC50 is defined as the selectivity index (SI) and is an indication of the selectivity of the anti-HIV activity of the inhibitor. The ultimate monitoring of HIV-1 infection and cytotoxicity is done using a scanning microscope. Image analysis allows very sensitive detection of viral infection. Measurements are done before cell necrosis, which usually takes place about five days after infection, in particular measurements are performed three days after infection.
A pEC50 value corresponds to −log10(EC50). A pCC50 value corresponds to −log10(CC50).

[3] = E. coli expressed CYP1A2, pH 7.4, probe CEC (5 μM), 10 μM test compound
[4] = E. coli expressed CYP2C19, pH 7.4, probe CEC (25 μM), 10 μM test compound
[5] = E. coli expressed CYP2D6, pH 7.4, probe AMMC (3 μM), 10 μM test compound
[6] = E. coli expressed CYP3A4, pH 7.4, probe BFC (150 μM), 10 μM test compound, substrate BFC 150 μM, read-out: 3A4-BFC % inh.
[7] = E. coli expressed CYP3A4, pH 7.4, probe BQ (60 μM), 10 μM test compound, substrate BQ 60 μM, read-out: 3A4-BQ % inh.
[8] = E. coli expressed CYP3A4, pH 7.4, probe DBF (1 μM), 10 μM test compound
[9] = Human immunodeficiency virus 1, 72 h, wild-type HIV-1 IIIB, MT4 LTR-EGFP cells, three days after infection, pEC50 = -log10(EC50)
[10] = human liver microsomes 1 mg/ml, 5 μM test compound, 15 min, 37° C., read-out: % recovery HLM15
[11] = pH 7.4, 10 μM test compound, substrate MFC 200 μM, 30 min, read-out: 2C9-MFC % inh.
[12] = Human immunodeficiency virus 1, IIIB, 72 h

T3 sequence (P10635 whole entry): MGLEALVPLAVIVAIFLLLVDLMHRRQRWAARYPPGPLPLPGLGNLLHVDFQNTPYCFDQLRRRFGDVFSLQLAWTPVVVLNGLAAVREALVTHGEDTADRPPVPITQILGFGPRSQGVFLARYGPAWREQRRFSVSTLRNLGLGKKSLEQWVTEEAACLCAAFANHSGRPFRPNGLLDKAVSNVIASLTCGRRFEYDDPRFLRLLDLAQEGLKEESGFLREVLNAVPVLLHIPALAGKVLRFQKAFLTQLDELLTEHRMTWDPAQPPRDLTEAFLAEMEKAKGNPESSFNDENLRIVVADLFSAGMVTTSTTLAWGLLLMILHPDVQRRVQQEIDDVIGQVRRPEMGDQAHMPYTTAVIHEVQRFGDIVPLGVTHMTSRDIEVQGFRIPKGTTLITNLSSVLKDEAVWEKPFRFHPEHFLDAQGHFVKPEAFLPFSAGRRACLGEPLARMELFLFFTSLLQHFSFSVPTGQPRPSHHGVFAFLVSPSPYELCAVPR
T4 sequence (P08684 whole entry): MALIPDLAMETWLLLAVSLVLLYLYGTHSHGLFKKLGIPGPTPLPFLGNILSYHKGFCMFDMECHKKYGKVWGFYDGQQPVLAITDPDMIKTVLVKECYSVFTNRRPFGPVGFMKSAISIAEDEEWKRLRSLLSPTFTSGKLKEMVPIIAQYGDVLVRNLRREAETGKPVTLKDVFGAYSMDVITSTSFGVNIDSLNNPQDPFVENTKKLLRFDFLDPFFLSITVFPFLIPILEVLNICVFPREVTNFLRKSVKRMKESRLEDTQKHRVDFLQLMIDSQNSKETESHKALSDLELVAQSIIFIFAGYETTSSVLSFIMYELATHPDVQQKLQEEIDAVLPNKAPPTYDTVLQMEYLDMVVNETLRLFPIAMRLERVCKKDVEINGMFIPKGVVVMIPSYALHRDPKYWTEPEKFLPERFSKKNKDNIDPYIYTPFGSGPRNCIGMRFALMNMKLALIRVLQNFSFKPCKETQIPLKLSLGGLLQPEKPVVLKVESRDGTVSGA
T2 sequence (P33261 whole entry): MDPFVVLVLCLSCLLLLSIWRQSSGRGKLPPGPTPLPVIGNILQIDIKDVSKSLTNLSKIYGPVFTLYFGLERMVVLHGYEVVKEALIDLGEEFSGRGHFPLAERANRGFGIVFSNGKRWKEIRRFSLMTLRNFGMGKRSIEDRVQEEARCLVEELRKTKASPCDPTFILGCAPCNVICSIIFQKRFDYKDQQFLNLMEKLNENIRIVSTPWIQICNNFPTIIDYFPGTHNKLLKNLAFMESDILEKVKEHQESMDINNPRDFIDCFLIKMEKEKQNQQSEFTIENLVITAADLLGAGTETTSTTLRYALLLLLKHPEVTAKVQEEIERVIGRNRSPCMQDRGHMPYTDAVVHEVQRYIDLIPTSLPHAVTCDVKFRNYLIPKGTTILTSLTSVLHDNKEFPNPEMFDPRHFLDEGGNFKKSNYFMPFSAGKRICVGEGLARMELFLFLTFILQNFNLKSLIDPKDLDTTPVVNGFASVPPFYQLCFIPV
CYP2C9, sequence (P11712 whole entry): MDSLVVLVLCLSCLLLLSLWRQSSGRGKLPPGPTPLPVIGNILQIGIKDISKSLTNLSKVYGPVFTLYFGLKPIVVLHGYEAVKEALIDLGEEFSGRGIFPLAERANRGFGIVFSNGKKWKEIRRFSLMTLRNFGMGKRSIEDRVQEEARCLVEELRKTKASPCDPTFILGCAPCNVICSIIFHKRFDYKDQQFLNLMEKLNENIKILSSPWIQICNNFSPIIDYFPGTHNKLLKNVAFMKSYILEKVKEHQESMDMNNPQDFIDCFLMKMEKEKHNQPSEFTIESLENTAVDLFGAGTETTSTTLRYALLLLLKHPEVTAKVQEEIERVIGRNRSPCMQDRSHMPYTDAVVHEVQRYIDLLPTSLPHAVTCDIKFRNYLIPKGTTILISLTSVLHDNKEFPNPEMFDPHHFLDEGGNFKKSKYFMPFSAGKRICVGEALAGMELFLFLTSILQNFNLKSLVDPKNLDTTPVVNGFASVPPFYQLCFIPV

SMILES | recovery at 15 min, 5 μM (in vitro; human) [%] | inhibition at 30 min, 10 μM (CYP2C9; pH 7.4) [%] | inhibition at 15 min, 10 μM (CYP1A2; [3]) [%] | inhibition at 30 min, 10 μM (CYP2C19; [4]) [%] | inhibition at 45 min, 10 μM (CYP2D6; [5]) [%] | inhibition at 30 min, 10 μM (CYP3A4; [6]) [%] | inhibition at 30 min, 10 μM (CYP3A4; [7]) [%] | inhibition at 10 min, 10 μM (CYP3A4; [8]) [%] | CC50 at 3 days [1] [µM] | EC50 [2, 9] [µM] | recovery at 15 min, 5 μM (in vitro; [10]) [%] | inhibition at 30 min, 10 μM (CYP2C9; [11]) [%] | inhibition at 15 min, 10 μM (CYP1A2; pH 7.4, 10 μM test compound) [%] | inhibition at 30 min, 10 μM (CYP2C19; pH 7.4, 10 μM test compound) [%] | inhibition at 45 min, 10 μM (CYP2D6; pH 7.4, 10 μM test compound) [%] | inhibition at 30 min, 10 μM (CYP3A4; pH 7.4, 10 μM test compound, substrate BFC 150 μM, read-out: 3A4-BFC % inh.) [%] | inhibition at 30 min, 10 μM (CYP3A4; pH 7.4, 10 μM test compound, substrate BQ 60 μM, read-out: 3A4-BQ % inh.) [%] | inhibition at 10 min, 10 μM (CYP3A4; pH 7.4, 10 μM test compound) [%] | EC50 [2, 12] [µM]
CC(C)CN(C[C@@H](O)[C@H](Cc1ccccc1)NC(=O)OCc1cccnc1)C(=O)c1ccncc1 [Compound C20] | 37 | 63 | 6 | 41 | 13 | 88 | 66 | 85 | > 100 | > 100 | – | – | – | – | – | – | – | – | –
CC(C)CN(C[C@@H](O)[C@H](Cc1ccccc1)NC(=O)OCc1cncs1)C(=O)c1ccco1 [Compound C21] | – | – | – | – | – | – | – | – | > 100 | – | 62 | 95 | 43 | 75 | 62 | 87 | 81 | 95 | > 100
CC(C)CN(C[C@@H](O)[C@H](Cc1ccccc1)NC(=O)OCc1cncs1)C(=O)c1ccc[nH]1 [Compound C14] | 24 | 98 | 56 | 87 | 67 | 84 | 80 | 91 | 89.1 | 79.4 | – | – | – | – | – | – | – | – | –
CC(C)CN(C[C@@H](O)[C@H](Cc1ccccc1)NC(=O)OCc1cncs1)C(=O)c1ccc2occc2c1 [Compound C2] | 67 | – | 40 | 98 | 102 | – | – | – | 45.7 | 44.7 | – | – | – | – | – | – | – | – | –
CC(C)CN(C[C@@H](O)[C@H](Cc1ccccc1)NC(=O)OCc1cncs1)C(=O)c1ccc2c(c1)OCO2 [Compound C1] | – | – | – | – | – | – | – | – | 57.5 | – | 56 | 97 | 36 | 94 | 73 | – | – | – | 47.9
CC(C)(O)CN(C[C@@H](O)[C@H](Cc1ccccc1)NC(=O)OCc1cncs1)C(=O)c1ccncc1 [Compound C26] | 92 | 82 | 0 | 35 | 30 | 95 | 77 | 84 | > 100 | – | – | – | – | – | – | – | – | – | –
CC(C)CN(C[C@@H](O)[C@H](Cc1ccccc1)NC(=O)OCc1cncs1)C(=O)c1cccc(F)c1 [Compound C19] | 69 | 93 | 43 | 77 | 53 | – | – | – | > 100 | – | – | – | – | – | – | – | – | – | –
